Laboratory results as given in ChEMBL document CHEMBL1201862, “PubChem BioAssay data set” (2004).
Counter-ions that a name gives are not always drawn.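 Compound exposure: 48 hours, 5 concentrations, 96-well plates. GI50 = concentration required for 50% inhibition of growth.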 Calls of active or inactive are those of the source. Rule as the data show it: active = GI50 up to about 1.1 µM and inactive = higher.

Experiments:
Assay in all cases: DTP human tumour cell line panel, 48 h
K562 = system: K562
786-0 = system: 786-0
M19-MEL = system: M19-MEL
ACHN = system: ACHN
U-251 = system: U-251
SF-295 = system: SF-295
M14 = system: M14
LOX IMVI = system: LOX IMVI
NCI-H522 = system: NCI-H522
SNB-78 = system: SNB-78
HOP-18 = system: HOP-18
XF498 = system: XF498
NCI-H226 = system: NCI-H226
SNB-19 = system: SNB-19
UACC-257 = system: UACC-257
HCT-15 = system: HCT-15
NCI-H460 = system: NCI-H460
MDA-MB-231 = system: MDA-MB-231
NCI/ADR-RES = system: NCI/ADR-RES
MDA-N = system: MDA-N

| Compound | GI50 (K562) | GI50 (786-0) | GI50 (M19-MEL) | GI50 (ACHN) | GI50 (U-251) | GI50 (SF-295) | GI50 (M14) | GI50 (LOX IMVI) | GI50 (NCI-H522) | GI50 (SNB-78) | GI50 (HOP-18) | GI50 (XF498) | GI50 (NCI-H226) | GI50 (SNB-19) | GI50 (UACC-257) | GI50 (HCT-15) | GI50 (NCI-H460) | GI50 (MDA-MB-231) | GI50 (NCI/ADR-RES) | GI50 (MDA-N) |
| --- | --- | --- | --- | --- | --- | --- | --- | --- | --- | --- | --- | --- | --- | --- | --- | --- | --- | --- | --- | --- |
| COC(=O)N/N=C(/CCN1CCCC1)CC(c1ccccc1)c1c(O)c2ccccc2oc1=O (stereo not given) | > 100 µM (inactive) | > 100 µM (inactive) | > 100 µM (inactive) | > 100 µM (inactive) | > 100 µM (inactive) | > 100 µM (inactive) | > 100 µM (inactive) | > 100 µM (inactive) | > 100 µM (inactive) | > 100 µM (inactive) | > 100 µM (inactive) | 38.7 µM (inactive) | > 100 µM (inactive) | > 100 µM (inactive) | > 100 µM (inactive) | > 100 µM | > 100 µM (inactive) |  |  |  |
| Cc1cc(C)c(-n2c(-c3ccc(Br)cc3)cs/c2=N\N=C2C=C(C(C)(C)C)C(=O)C(C(C)(C)C)=C2)c(C)c1 | > 100 µM (inactive) | > 100 µM (inactive) | > 100 µM (inactive) | > 100 µM (inactive) | 31.2 µM (inactive) | > 41.5 µM (inactive) | > 100 µM (inactive) | > 100 µM (inactive) | > 100 µM (inactive) | 38.7 µM (inactive) | > 100 µM (inactive) | 29.9 µM (inactive) | > 100 µM (inactive) | 76.2 µM (inactive) | > 100 µM (inactive) | > 100 µM | > 100 µM (inactive) | 55.3 µM (inactive) | > 100 µM (inactive) | > 100 µM (inactive) |
| CCOc1ccc(N(CC(=O)N2CC(=O)Nc3cc(C)c(C)cc32)C(C)=O)cc1 | > 100 µM (inactive) | > 100 µM (inactive) | > 100 µM (inactive) | > 100 µM (inactive) | > 100 µM (inactive) | > 100 µM (inactive) | > 100 µM (inactive) | > 100 µM (inactive) | > 100 µM (inactive) | > 100 µM (inactive) | > 100 µM (inactive) | > 100 µM (inactive) | > 100 µM (inactive) | > 100 µM (inactive) | > 100 µM (inactive) | > 100 µM | > 100 µM (inactive) |  |  |  |
| [O-][S+]1Cc2ccccc2CSS1 (stereo not given) | 12.3 µM (inactive) | 15.7 µM (inactive) | 20.2 µM (inactive) | 12.8 µM (inactive) | 14.3 µM (inactive) | 18.7 µM (inactive) | 14 µM (inactive) | 3.96 µM (inactive) | 6.28 µM (inactive) | 20 µM (inactive) | 27.9 µM (inactive) | 19.7 µM (inactive) | 27.2 µM (inactive) | 35.5 µM (inactive) | 14.5 µM (inactive) | 13 µM | 16.8 µM (inactive) |  |  |  |
| COC(=O)C1=CCS(=O)(=O)C1 | > 100 µM (inactive) | > 100 µM (inactive) | > 100 µM (inactive) | > 100 µM (inactive) |  | > 100 µM (inactive) | > 100 µM (inactive) | > 100 µM (inactive) |  | > 100 µM (inactive) | > 100 µM (inactive) | > 100 µM (inactive) | > 100 µM (inactive) | > 100 µM (inactive) | > 100 µM (inactive) | > 100 µM | > 100 µM (inactive) |  |  |  |
| O=C(c1ccccc1)[C@H]1Nc2ccc(Cl)cc2[C@H]2c3ccccc3O[C@H]21 | 14.5 µM (inactive) | 16.6 µM (inactive) | 19.1 µM (inactive) | 15.2 µM (inactive) | 15.6 µM (inactive) | 15.5 µM (inactive) | 16.3 µM (inactive) | 20.7 µM (inactive) | 17.8 µM (inactive) | 14.9 µM (inactive) | 11.7 µM (inactive) | 14.7 µM (inactive) | > 10 µM (inactive) | 15.7 µM (inactive) | 2.45 µM (inactive) | 14.4 µM | 16.5 µM (inactive) |  |  |  |
| CC(C)/C=C1\CCC(CN2CCCC2)C1=O (stereo not given) | 2.69 µM (inactive) | 2.01 µM (inactive) | 24.1 µM (inactive) | 18.2 µM (inactive) | 14.6 µM (inactive) | 42.6 µM (inactive) | 10.9 µM (inactive) | 19.9 µM (inactive) | 1.95 µM (inactive) | 21 µM (inactive) | 7.73 µM (inactive) | 16.6 µM (inactive) | 20.9 µM (inactive) | > 41.6 µM (inactive) | 17.7 µM (inactive) | 5.05 µM | 39 µM (inactive) |  |  |  |
| CCN(CC)CC(=O)/C=C/c1ccc(C)cc1 | 35.6 µM (inactive) | 17.6 µM (inactive) | 17.6 µM (inactive) | 19.2 µM (inactive) | 16.5 µM (inactive) | 32 µM (inactive) | 17.4 µM (inactive) | 18.5 µM (inactive) |  | 51.8 µM (inactive) | 23.2 µM (inactive) | 31 µM (inactive) | 22.1 µM (inactive) | 15.1 µM (inactive) | 21.6 µM (inactive) | 18.9 µM | 20.6 µM (inactive) |  |  |  |
| COc1ccc(C2(CN(C)C)COc3cc(OC)c(OC)cc3C2=O)cc1OC (stereo not given) | 31.6 µM (inactive) | > 100 µM (inactive) | 66.8 µM (inactive) | 89.5 µM (inactive) | 45.9 µM (inactive) | 92.9 µM (inactive) | 89.3 µM (inactive) | 16.6 µM (inactive) | 59.6 µM (inactive) | 41.3 µM (inactive) | > 100 µM (inactive) | 30.1 µM (inactive) | 84.9 µM (inactive) | > 100 µM (inactive) | 49.1 µM (inactive) |  | 33.9 µM (inactive) |  |  |  |
| CCCCC1(C(NC(=O)c2ccccc2Cl)c2ccncc2)C(=O)N(c2ccccc2)N(c2ccccc2)C1=O (stereo not given) | 33.5 µM (inactive) | 83.4 µM (inactive) | 47.5 µM (inactive) | 36.6 µM (inactive) | 34 µM (inactive) | 55.7 µM (inactive) | 55.7 µM (inactive) | 56.9 µM (inactive) | 31.6 µM (inactive) | 56.8 µM (inactive) | > 100 µM (inactive) | 35.9 µM (inactive) | 66.8 µM (inactive) | 77.6 µM (inactive) | 29.7 µM (inactive) | 38.5 µM | 32.8 µM (inactive) |  |  |  |
| O=c1/c(=C/c2ccc(Cl)cc2Cl)sc2nc3ccccc3n12 | > 100 µM (inactive) | > 100 µM (inactive) | > 100 µM (inactive) | > 100 µM (inactive) | > 100 µM (inactive) | > 100 µM (inactive) | > 100 µM (inactive) | > 100 µM (inactive) | > 100 µM (inactive) | > 100 µM (inactive) | > 100 µM (inactive) | > 100 µM (inactive) | > 100 µM (inactive) | > 100 µM (inactive) | > 100 µM (inactive) | > 100 µM | > 100 µM (inactive) |  |  |  |
| CO[C@H]1CC[C@]2(C)C3=CC[C@@]4(C)C(CC[C@@H]4C(C)CC[C@@H](C)C(C)C)C(=CCC2C1)O3 (stereo not given in full) | > 25 µM (inactive) | > 25 µM (inactive) | > 25 µM (inactive) | > 25 µM (inactive) | > 25 µM (inactive) | > 25 µM (inactive) | > 25 µM (inactive) | > 25 µM (inactive) | > 25 µM (inactive) | > 25 µM (inactive) | > 25 µM (inactive) | > 25 µM (inactive) | > 16.5 µM (inactive) | > 25 µM (inactive) | > 25 µM (inactive) | > 25 µM | > 25 µM (inactive) |  |  |  |
| O=C1Sc2ccccc2C(=O)N2CSCC12 (stereo not given) | > 100 µM (inactive) | > 100 µM (inactive) | > 100 µM (inactive) | > 100 µM (inactive) | > 100 µM (inactive) | > 100 µM (inactive) | > 100 µM (inactive) | > 100 µM (inactive) | > 100 µM (inactive) | > 100 µM (inactive) | > 100 µM (inactive) | > 100 µM (inactive) | > 100 µM (inactive) | > 100 µM (inactive) | > 100 µM (inactive) |  | > 100 µM (inactive) |  |  |  |
| Cc1nccc2c1[nH]c1cc(O)ccc12 [HARMOL HYDROCHLORIDE] | 37.1 µM (inactive) | 55.2 µM (inactive) | > 100 µM (inactive) | 31.8 µM (inactive) | > 100 µM (inactive) | 33 µM (inactive) | > 100 µM (inactive) | 45.6 µM (inactive) |  | > 100 µM (inactive) | 38 µM (inactive) | 28.4 µM (inactive) | 96.6 µM (inactive) | > 100 µM (inactive) | 82.4 µM (inactive) | 61.4 µM | 37.4 µM (inactive) |  |  |  |
